Like-named read-outs stand apart in the source and are kept apart here.
What was measured:
[1] = tested on: Tau-EGFP mouse embryonic fibroblasts transduced with Ascl1/Myt1l; test: High-throughput compound screening for Tau-EGFP expression and neuronal morphology; type: cell-based; conditions: individual compound plus doxycycline 7 days, analysed day 14; hits confirmed dose-dependently in larger well format
Procedure: Infected Tau-EGFP MEFs in 150-mm dishes were dissociated by trypsinization and plated to 384-well plates with 4×10^3 cells per well in 50 μl of N2B27 medium plus 2.0 μg ml^−1 doxycycline by using Multi-drop (Thermo Fisher). Fifty nanoliters of compounds from a collection of known drugs (˜3,000) were added to each well of infected cells by using BioMek (BD). After 3 days of compound treatment, […] N2B27 media were added to each well to keep the medium volume at 55-60 μl. The total period of compound treatment is 7 days. After that, medium was replaced with neuronal maturation medium for another 7 days. The cells were then fixed for immunostaining on Day 14. The high-throughput imaging was performed by using InCell 2000. Finally, the screening result was analyzed by InCell Workstation 2000.
To conduct the chemical screening, Tau-EGFP mouse embryonic fibroblasts were used that were transduced with an Ascl1/Myt1l coding region that was under control of tet operator. These cells were plated at 4,000 cells/well in 384-well plates containing chemically defined N2B27 media. After overnight incubation, the cells were treated for seven days with doxycycline to induce Ascl1/Myt1l expression and also contacted with individual compounds selected from a drug collection containing over 3000 compounds. The media was then replaced with compound-free standard neuronal media. Cells were fixed at day 14 then analyzed for Tau-EGFP expression and neuronal morphology by high content imaging (FIG. 4A and FIG. 3).

[2] = target: mGlu4 (Homo sapiens, UniProt Q14833); conditions: cited from earlier work
[3] = target: SAPK2/p38 (Homo sapiens, UniProt Q16539); conditions: inhibitor of CK1 and ALK5; cited from earlier work
[4] = tested on: histone deacetylases (HDACs); conditions: read-out: IC50 (histone deacetylase), cited from earlier work
[5] = target: adenylate cyclase 1 (Homo sapiens, UniProt Q08828); conditions: cited from earlier work
[6] = tested on: PDE4; conditions: read-out: IC50 against PDE4; cited from earlier work
[7] = tested on: RFP-positive miR124-RFP/Brn2 human fibroblast-derived cells; test: Patch clamp electrophysiology of STRC2-treated miR124-RFP/Brn2 cells; type: cell-based
[8] = target: rat Group II mGlu receptor; conditions: read-out: IC50 against rat Group II mGlu receptor; cited from earlier work
[9] = tested on: mGlu(3) receptors; conditions: rodent and human; cited from earlier work
[10] = tested on: mGlu(2) receptors; conditions: rodent and human; cited from earlier work
[11] = target: mGlu receptors; conditions: cited from earlier work
[12] = target: histone acetyltransferase p300 (Homo sapiens, UniProt Q09472); conditions: simplified analog of CTPB; cited from earlier work
[13] = tested on: STRC2-Ascl1/Myt1l neuronal cells from MEFs; test: Patch clamp electrophysiology of STRC2-Ascl1/Myt1l induced neuronal cells; type: cell-based, mouse
[14] = tested on: HDAC activity in HeLa extracts; conditions: read-out: IC50 for inhibition of HDAC activity; cited from earlier work
[15] = target: various mGlu receptors; conditions: Ki depends on which receptor is bound; cited from earlier work

Sequence of mGlu4 (Q14833 33-912): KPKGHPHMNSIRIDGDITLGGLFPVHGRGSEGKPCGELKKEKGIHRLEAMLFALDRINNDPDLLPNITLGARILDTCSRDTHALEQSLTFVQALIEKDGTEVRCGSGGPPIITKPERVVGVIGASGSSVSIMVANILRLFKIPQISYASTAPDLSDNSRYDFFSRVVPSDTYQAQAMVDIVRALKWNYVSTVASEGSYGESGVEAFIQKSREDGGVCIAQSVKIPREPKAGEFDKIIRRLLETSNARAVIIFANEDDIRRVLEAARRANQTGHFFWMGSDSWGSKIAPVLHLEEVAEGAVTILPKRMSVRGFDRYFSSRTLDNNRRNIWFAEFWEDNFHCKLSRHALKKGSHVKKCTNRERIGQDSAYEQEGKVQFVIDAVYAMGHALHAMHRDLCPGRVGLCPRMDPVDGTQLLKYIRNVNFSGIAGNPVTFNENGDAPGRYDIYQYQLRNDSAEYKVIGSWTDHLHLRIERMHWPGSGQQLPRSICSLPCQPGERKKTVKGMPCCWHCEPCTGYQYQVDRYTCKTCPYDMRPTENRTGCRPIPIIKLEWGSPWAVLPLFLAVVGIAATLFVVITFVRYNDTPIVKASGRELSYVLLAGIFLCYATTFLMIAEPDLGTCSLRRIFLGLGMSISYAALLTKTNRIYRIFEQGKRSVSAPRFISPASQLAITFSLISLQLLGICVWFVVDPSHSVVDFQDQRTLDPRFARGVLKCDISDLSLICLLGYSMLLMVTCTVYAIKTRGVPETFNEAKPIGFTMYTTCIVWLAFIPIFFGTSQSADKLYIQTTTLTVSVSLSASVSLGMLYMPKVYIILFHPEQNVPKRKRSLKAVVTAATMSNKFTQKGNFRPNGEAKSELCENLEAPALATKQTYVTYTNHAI
Sequence of histone acetyltransferase p300 (Q09472 whole entry, species assumed): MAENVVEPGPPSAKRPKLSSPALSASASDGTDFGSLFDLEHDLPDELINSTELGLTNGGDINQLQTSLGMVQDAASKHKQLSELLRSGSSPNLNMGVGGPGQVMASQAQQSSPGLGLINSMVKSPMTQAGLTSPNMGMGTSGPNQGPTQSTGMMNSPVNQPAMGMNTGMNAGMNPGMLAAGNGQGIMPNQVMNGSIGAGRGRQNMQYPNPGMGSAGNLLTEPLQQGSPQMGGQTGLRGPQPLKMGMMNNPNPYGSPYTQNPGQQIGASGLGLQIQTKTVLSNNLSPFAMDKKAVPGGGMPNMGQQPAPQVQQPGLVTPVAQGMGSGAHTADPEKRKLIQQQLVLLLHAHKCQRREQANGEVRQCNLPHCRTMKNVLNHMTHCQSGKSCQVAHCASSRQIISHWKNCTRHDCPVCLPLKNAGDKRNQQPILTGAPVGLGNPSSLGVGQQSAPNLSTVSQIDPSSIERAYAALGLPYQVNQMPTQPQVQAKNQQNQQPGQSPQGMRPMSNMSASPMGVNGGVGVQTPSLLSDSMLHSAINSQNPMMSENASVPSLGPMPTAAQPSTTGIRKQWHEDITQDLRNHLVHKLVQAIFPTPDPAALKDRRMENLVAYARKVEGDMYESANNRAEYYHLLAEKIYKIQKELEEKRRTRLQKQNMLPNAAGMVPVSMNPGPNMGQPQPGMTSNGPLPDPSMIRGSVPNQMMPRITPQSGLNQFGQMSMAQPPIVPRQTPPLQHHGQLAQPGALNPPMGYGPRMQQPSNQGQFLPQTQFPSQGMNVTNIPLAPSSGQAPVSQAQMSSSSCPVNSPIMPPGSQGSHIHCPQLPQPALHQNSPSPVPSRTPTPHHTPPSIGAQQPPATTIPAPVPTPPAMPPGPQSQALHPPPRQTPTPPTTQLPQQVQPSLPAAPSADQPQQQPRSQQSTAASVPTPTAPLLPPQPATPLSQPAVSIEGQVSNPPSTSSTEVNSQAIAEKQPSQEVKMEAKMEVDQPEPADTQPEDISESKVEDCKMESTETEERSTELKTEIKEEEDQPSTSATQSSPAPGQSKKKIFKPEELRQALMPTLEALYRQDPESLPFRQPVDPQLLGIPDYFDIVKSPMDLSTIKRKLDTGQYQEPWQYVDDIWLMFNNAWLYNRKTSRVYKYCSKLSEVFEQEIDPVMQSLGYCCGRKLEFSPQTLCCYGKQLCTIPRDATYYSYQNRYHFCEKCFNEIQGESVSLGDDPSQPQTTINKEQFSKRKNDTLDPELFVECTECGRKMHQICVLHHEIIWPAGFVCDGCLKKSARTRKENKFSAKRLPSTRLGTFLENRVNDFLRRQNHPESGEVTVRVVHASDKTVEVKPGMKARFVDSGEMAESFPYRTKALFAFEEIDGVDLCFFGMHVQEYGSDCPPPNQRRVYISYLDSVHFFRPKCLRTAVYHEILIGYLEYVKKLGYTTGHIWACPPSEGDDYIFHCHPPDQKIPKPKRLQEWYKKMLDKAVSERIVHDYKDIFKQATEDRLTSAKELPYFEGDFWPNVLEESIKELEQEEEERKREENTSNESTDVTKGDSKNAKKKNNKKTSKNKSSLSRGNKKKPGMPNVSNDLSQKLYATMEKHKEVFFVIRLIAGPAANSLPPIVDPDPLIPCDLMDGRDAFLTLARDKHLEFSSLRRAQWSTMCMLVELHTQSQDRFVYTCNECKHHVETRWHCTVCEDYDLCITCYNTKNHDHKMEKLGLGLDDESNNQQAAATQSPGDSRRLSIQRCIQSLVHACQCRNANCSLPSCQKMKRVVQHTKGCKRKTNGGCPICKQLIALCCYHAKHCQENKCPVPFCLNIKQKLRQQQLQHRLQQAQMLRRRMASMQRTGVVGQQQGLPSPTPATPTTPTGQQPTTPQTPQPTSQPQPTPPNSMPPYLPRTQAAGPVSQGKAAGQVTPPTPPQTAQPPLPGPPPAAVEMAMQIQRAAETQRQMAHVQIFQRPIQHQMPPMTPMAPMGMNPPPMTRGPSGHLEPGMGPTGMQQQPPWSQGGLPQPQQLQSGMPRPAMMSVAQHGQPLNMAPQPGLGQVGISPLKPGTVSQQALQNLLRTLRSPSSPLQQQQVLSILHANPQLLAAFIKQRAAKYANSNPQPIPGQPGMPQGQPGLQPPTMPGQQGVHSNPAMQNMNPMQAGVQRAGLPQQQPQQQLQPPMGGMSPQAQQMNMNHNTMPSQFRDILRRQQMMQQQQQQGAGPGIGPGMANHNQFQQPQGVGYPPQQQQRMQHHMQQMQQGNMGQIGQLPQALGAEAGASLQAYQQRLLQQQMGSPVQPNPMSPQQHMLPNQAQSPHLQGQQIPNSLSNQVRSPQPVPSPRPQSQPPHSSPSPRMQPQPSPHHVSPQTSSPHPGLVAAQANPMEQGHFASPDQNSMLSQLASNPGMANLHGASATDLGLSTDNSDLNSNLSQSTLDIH
Sequence of SAPK2/p38 (Q16539 whole entry): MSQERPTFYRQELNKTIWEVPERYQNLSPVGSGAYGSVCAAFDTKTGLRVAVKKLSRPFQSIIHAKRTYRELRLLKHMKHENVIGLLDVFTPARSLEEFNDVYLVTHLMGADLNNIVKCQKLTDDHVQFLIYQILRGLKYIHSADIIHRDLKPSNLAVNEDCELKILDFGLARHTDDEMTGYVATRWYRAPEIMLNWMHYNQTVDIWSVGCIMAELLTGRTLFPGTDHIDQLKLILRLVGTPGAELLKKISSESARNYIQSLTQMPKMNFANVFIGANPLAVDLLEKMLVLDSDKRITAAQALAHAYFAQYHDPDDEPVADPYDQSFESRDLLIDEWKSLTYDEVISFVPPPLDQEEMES
Sequence of adenylate cyclase 1 (Q08828 whole entry): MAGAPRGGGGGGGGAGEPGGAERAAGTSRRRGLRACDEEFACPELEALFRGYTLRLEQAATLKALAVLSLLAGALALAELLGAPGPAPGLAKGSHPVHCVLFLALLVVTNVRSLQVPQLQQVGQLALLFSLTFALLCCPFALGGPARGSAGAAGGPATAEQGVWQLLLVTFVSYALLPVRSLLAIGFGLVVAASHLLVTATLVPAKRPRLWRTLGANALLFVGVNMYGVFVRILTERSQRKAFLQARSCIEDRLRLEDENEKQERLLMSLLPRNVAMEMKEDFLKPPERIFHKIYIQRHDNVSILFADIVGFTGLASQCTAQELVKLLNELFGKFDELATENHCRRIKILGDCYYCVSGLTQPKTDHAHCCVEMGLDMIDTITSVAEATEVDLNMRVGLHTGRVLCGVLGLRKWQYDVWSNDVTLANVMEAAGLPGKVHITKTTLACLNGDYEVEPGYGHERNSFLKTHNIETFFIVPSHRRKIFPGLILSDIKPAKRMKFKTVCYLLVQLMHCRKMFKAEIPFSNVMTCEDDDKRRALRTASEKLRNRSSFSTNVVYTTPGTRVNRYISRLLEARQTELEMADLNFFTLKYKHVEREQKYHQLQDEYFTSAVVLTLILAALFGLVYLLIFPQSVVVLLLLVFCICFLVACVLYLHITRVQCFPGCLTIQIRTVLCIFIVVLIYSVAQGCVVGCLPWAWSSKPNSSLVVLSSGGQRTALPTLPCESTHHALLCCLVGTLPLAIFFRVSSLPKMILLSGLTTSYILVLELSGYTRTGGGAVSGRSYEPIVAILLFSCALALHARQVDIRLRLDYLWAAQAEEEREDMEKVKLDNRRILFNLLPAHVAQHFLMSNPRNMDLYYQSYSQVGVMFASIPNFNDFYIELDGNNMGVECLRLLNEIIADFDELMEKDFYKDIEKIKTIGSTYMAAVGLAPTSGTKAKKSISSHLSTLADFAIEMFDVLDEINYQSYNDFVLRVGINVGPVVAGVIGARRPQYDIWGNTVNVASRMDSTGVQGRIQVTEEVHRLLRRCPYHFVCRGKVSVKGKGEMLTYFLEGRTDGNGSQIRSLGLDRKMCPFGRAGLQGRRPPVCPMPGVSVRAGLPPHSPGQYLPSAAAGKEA

(2S,3S,4R,5R)-3,4-dihydroxy-5-[6-[(3-iodophenyl)methylamino]purin-9-yl]-N-ethyloxolane-2-carboxamide [IB-MECA]
induction of Tau-EGFP expression and neuronal morphology (screen hit) [1]: induce Tau-EGFP expression and a neuronal morphology

CCCCCCCCCCCCCCCc1cccc(OCC)c1C(=O)Nc1ccc(Cl)c(C(F)(F)F)c1 [CTPB, N-(4-chloro-3-trifluoromethyl-phenyl)-2-ethoxy-6-pentadecyl-benzamide]
induction of Tau-EGFP expression and neuronal morphology (screen hit) [1]: induce Tau-EGFP expression and a neuronal morphology

O=C(O)c1ccc(-c2ccc3cc(O)c(C45CC6CC(CC(C6)C4)C5)cc3c2)cc1 [CD1530, 4-(6-hydroxy-7-tricyclo[3.3.1.13,7]dec-1-yl-2-naphthalenyl)benzoic acid]
induction of Tau-EGFP expression and neuronal morphology (screen hit) [1]: induce Tau-EGFP expression and a neuronal morphology

NC(=O)c1ccc(-c2nc(-c3ccc4c(c3)OCO4)c(-c3ccccn3)[nH]2)cc1 [SB 431542, 4-[4-(1,3-benzodioxol-5-yl)-5-(2-pyridinyl)-1H-imidazol-2-yl]benzamide]
induction of Tau-EGFP expression and neuronal morphology (screen hit) [1]: induce Tau-EGFP expression and a neuronal morphology

NC(=O)[C@@H]1CCCC[C@@H]1C(=O)Nc1ccc(Cl)c(Cl)c1 [Lu AF21934, (1S,2R)-N1-(3,4-dichlorophenyl)cyclohexane-1,2-dicarboxamide]
EC50 [2]: 500 nM

NC(=O)c1ccc(-c2nc(-c3ccc4c(c3)OCCO4)c(-c3ccccn3)[nH]2)cc1 [D 4476, 4-[4-(2,3-Dihydro-1,4-benzodioxin-6-yl)-5-(2-pyridinyl)-IH-imidazol-2-yl]benzamide]
selectivity over SAPK2/p38 [3]: greater than 20 fold

C[C@@H](N)[C@H]1CC[C@H](C(=O)Nc2ccncc2)CC1 [Y27632, 4-[(1R)-1-aminoethyl]-N-pyridin-4-ylcyclohexane-1-carboxamide]
induction of Tau-EGFP expression and neuronal morphology (screen hit) [1]: induce Tau-EGFP expression and a neuronal morphology

CC(/C=C/C(=O)NO)=C\[C@@H](C)C(=O)c1ccc(N(C)C)cc1 [Trichostatin A, (R,2E,4E)-6-(4-(dimethylamino)benzoyl)-N-hydroxy-4-methylhepta-2,4-dienamide]
IC50 [4]: ~1.8 nM | induction of Tau-EGFP expression and neuronal morphology (screen hit) [1]: induce Tau-EGFP expression and a neuronal morphology

C=C[C@@]1(C)CC(=O)[C@]2(O)[C@@]3(C)[C@@H](O)CCC(C)(C)[C@@H]3[C@H](O)[C@H](OC(C)=O)[C@@]2(C)O1 [Forskolin]
IC50 [5]: 40 to 150 nM

COc1ccc(C(=O)Nc2cc(Cl)cnc2Cl)c2cccnc12 [D-4418, N-(2,5-dichloropyridin-3-yl)-8-methoxyquinoline-5-carboxamide]
IC50 [6]: ~170 nM

COc1ccc(C2CNC(=O)C2)cc1OC1CCCC1 (stereo not shown) [rolipram, 4-(3-cyclopentyloxy-4-methoxyphenyl)pyrrolidin-2-one]
induction of Tau-EGFP expression and neuronal morphology (screen hit) [1]: induce Tau-EGFP expression and a neuronal morphology

Cc1cc(C)cc(C(=O)OC2CC3CCC(C2)N3C)c1 (stereo not shown) [TDMB, Tropanyl-3,5-dimethylbenzoate]
induction of Tau-EGFP expression and neuronal morphology (screen hit) [1]: induce Tau-EGFP expression and a neuronal morphology

NC1=N[C@H](O)[C@H]2[C@H]3O[C@]4(O)O[C@@H]([C@@H](O)[C@@]2(N1)[C@@H]4O)[C@]3(O)CO [TTX, tetrodotoxin]
effect on trains of action potentials [7]: abolished

N[C@@]1(C(=O)O)CC[C@H]2[C@H](C(=O)O)[C@H]21 [LY354740, 1S,2S,5R,6S-2-aminobicyclo[3.1.0]hexane-2,6-dicarboxylate]
IC50 [8]: ~254 nM

COc1ccc(C(=O)Nc2c(Cl)c[n+]([O-])cc2Cl)c2ccc(C(F)(F)F)nc12 [Sch-351591]
IC50 [6]: 150 nM

NC1(C(=O)O)CC(F)C2C(C(=O)O)C21 (stereo not shown) [LY459477, 2-amino-4-fluorobicyclo[3.1.0]hexane-2,6-dicarboxylic acid]
potency for mGlu(3) receptors [9]: 1 to 2 nM | potency for mGlu(2) receptors [10]: 1 to 2 nM

CCc1nn(C2CCCC2)c2c1CCn1c(-c3cccs3)nnc1-2 [tofimilast]
IC50 [6]: ~13 nM

Nc1ccccc1NC(=O)c1ccc(CNC(=O)OCc2cccnc2)cc1 [MS-27-275, pyridin-3-ylmethyl-N-[[4-[(2-aminophenyl)carbamoyl]phenyl]methyl]carbamate]
IC50 [4]: 100 to 1000 nM

COc1ccc(C2(C#N)CCC(C(=O)O)CC2)cc1OC1CCCC1 (stereo not shown) [ariflo, 4-cyano-4-(3-cyclopentyloxy-4-methoxyphenyl)cyclohexane-1-carboxylic acid]
IC50 [6]: ~150 nM

Cc1c[nH]c(-c2cnc(NCCNc3ccc(C#N)cn3)nc2-c2ccc(Cl)cc2Cl)n1 [CHIR99021, 6-(2-(4-(2,4-dichlorophenyl)-5-(4-methyl-1H-imidazol-2-yl)pyrimidin-2-ylamino)ethylamino)nicotinonitrile]
induction of Tau-EGFP expression and neuronal morphology (screen hit) [1]: induce Tau-EGFP expression and a neuronal morphology

Cc1cc2c3c(c1)C(c1ccccc1)=N[C@@H](NC(=O)c1ccncc1)C(=O)N3CC2 [Cl-1018, N-[(3R)-9-methyl-4-oxo-1-phenyl-3,4,6,7-tetrahydro[1,4]diazepino[6,7,1-hi]indol-3-yl]pyridine-4-carboxamide]
IC50 [6]: ~3000 nM

COc1ccc([C@H](Cc2ccncc2)c2ccccc2)cc1OC1CCCC1 [CDP-840, 4-[(2R)-2-(3-cyclopentyloxy-4-methoxyphenyl)-2-phenylethyl]pyridine]
IC50 [6]: ~10000 nM

CCOC(=O)c1ccc(N(C)C2CSC(c3ccccc3)=N2)cc1 (stereo not shown) [KHS2, ethyl 4-(methyl(2-phenyl-4,5-dihydrothiazol-4-yl)amino)benzoate]
induction of Tau-EGFP expression and neuronal morphology (screen hit) [1]: induce Tau-EGFP expression and a neuronal morphology

Nc1ccccc1NC(=O)c1ccc(CNc2nccc(-c3cccnc3)n2)cc1 [MGCD0103, N-(2-aminophenyl)-4-[[(4-pyridin-3-ylpyrimidin-2-yl)amino]methyl]benzamide]
IC50 ([4]; isoform not stated): ~100 nM

N[C@@]1(C(=O)O)CC[C@@H](C(=O)O)C1 [ACPD, (1S,3R)-1-aminocyclopentane-1,3-dicarboxylic acid]
EC50 [11]: 9000 to 40000 nM | induction of Tau-EGFP expression and neuronal morphology (screen hit) [1]: induce Tau-EGFP expression and a neuronal morphology

CCOc1ccccc1C(=O)Nc1ccc(Cl)c(C(F)(F)F)c1 [CTB, N-(4-chloro-3-trifluoromethyl-phenyl)-2-ethoxybenzamide]
activity as p300 activator relative to CTPB [12]: comparable or higher activity

O=C(Nc1c(Cl)cncc1Cl)c1ccc(OC(F)F)c(OCC2CC2)c1 [roflumilast, 3-(cyclopropylmethoxy)-N-(3,5-dichloropyridin-4-yl)-4-(difluoromethoxy)benzamide]
IC50 [6]: 0.6 nM

NS(=O)(=O)c1cccc2c1c([N+](=O)[O-])cc1nc(O)c(O)nc12 [NBQX, 2,3-dihydroxy-6-nitro-7-sulfamoylbenzo quinoxaline]
effect on spontaneous excitatory postsynaptic current (sEPSC) ([13]; AMPA receptor antagonist, 10 μM): blocked

Nc1ccccc1NC(=O)CCCCCCC(=O)Nc1ccccc1 [BML-210, N1-(2-aminophenyl)-N8-phenyl-octanediamide]
IC50 [14]: ~80000 nM

picrotoxin
effect on inhibitory postsynaptic currents (sIPSCs) ([13]; GABAA receptor antagonist, 50 μM): blocked

NC(=O)[C@H]1CCCC[C@H]1C(=O)Nc1ccc(Cl)c(Cl)c1 [Lu AF21935, (1R,2S)-N1-(3,4-dichlorophenyl)cyclohexane-1,2-dicarboxamide]
EC50 [2]: > 10000 nM

O=C(Nc1cc(Cl)cc(Cl)c1)[C@H]1CCCC[C@H]1C(=O)O (relative stereo) [VU0155041, cis-2-[[(3,5-dichlorophenyl)amino]carbonyl]cyclohexanecarboxylic acid]
EC50 [2]: 1000 nM

N[C@@]1(C(=O)O)COC2C1[C@H]2C(=O)O (stereo partly drawn) [LY379268, (4R,6R)-4-amino-2-oxabicyclo[3.1.0]hexane-4,6-dicarboxylic acid]
Ki [15]: 2.7 to 100000 nM

CC1(C)NC(=O)C(CCCCCC(=O)[C@H]2CO2)NC(=O)C2CCCN2C(=O)[C@@H](Cc2ccccc2)NC1=O (stereo partly drawn) [Chlamydocin, (3R)-3-benzyl-6,6-dimethyl-9-[6-[(2R)-oxiran-2-yl]-6-oxohexyl]-1,4,7,10-tetrazabicyclo[10.3.0]pentadecane-2,5,8,11-tetrone]
IC50 ([4]; isoform not stated): ~0.15 nM

Reference: US10500232B2, “Small molecule cellular reprogramming to generate neuronal cells” (The J. David Gladstone Institutes, a testamentary trust …, priority 2013, dated 2019)
